# Measurements: patent US20080255134A1 (Artesian Therapeutics, Inc., priority 2004, published 2008)
# Like-named read-outs stand apart in the source and are kept apart here.
# Target: T1, PDE3 (Homo sapiens, UniProt Q14432)
# T1 construct: from tissue; host or cells: human platelets
# Assay: In vitro assay for cAMP PDE-3 inhibitory activity
# Assay type: biochemical
# Settings: human platelet cyclic AMP phosphodiesterase, bound stated
# Method: Human platelet cyclic AMP phosphodiesterase was prepared according to the method of Alvarez et al., Mol. Pharmacol. 29: 554 (1986). The PDE incubation medium contained 10 mM Tris-HCl buffer, pH 7.7, 10 mM MgSO4, and 1 μM […] (0.2 μCi) in a total volume of 1.0 mL. Test compounds were dissolved in DMSO immediately prior to addition to the incubation medium, and the resulting mixture was allowed to stand for 10 minutes prior to the addition of enzyme. Following the addition of PDE, the contents were mixed and incubated for 10 minutes at 30° C. Three assays each were performed for each of five test compound concentrations, the mean of the determinations (n=3) at each concentration was plotted, and IC50 values were determined graphically.
# The ability of Compounds 25 and 8c to inhibit PDE3 and β-adrenergic receptor activity was examined both in vitro and in vivo. […] Non-selective β-adrenergic and β1-adrenergic radioligand binding assays were performed using rat cortical membranes; β2-adrenergic receptor assays were performed using membranes isolated from CHO cells expressing human, recombinant b2-adrenergic receptor; non-selective α1-adrenergic receptor assays were performed using rat forebrain membranes; and PDE3 binding assays were performed on human platelets. Values in percent illustrate percent inhibition at 1000 nM concentration.
# [1] = read-out: PDE IC50 inhibition values
# T1 sequence (Q14432 whole entry): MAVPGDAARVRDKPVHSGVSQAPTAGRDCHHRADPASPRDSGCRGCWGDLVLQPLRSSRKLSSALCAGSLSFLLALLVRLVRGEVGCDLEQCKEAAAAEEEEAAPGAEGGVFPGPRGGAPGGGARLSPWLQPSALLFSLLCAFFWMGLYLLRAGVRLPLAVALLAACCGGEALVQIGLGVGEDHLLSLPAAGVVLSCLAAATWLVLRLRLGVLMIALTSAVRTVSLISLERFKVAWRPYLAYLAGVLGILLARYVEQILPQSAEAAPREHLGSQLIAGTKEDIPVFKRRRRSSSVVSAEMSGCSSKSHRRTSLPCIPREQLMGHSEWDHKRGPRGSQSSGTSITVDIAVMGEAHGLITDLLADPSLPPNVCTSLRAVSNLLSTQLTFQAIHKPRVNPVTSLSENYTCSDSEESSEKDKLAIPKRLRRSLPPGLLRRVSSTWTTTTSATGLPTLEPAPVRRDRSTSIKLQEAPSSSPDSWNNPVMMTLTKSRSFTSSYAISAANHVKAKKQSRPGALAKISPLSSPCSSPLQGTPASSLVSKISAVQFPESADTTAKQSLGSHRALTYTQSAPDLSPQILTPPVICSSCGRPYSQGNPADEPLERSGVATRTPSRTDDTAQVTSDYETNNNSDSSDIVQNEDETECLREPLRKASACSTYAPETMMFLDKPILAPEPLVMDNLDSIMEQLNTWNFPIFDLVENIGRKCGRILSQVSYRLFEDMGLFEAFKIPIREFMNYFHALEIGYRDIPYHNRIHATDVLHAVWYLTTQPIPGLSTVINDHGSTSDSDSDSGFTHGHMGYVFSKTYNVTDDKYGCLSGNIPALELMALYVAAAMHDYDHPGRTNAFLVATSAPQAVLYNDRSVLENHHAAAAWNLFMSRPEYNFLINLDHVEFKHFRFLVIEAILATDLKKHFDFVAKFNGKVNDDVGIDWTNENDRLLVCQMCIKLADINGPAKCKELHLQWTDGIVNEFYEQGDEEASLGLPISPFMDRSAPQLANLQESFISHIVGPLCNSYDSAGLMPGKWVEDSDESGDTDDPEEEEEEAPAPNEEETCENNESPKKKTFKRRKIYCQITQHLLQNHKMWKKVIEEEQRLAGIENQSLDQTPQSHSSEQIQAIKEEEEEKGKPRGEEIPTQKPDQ
IC50 (read-out: PDE3 inhibition IC50) [nM],IC50 [1] [nM],SMILES
< 1000,,"O=C1CCC(c2ccc(OCC(=O)N3CCC(NC[C@H](O)COc4ccccc4F)CC3)c(Cl)c2)=NN1 [Compound 8b, 6-[3-Chloro-4-(2-{4-[3-(2-fluoro-phenoxy)-2-hydroxy-propylamino]-piperidin-1-yl}-2-oxo-ethoxy)-phenyl]-4,5-dihydro-2H-pyridazin-3-one]"
< 1000,,"COc1ccccc1OC[C@@H](O)CNC1CCN(C(=O)COc2ccc(C3=NNC(=O)CC3)cc2Cl)CC1 [Compound 8h, 6-[3-chloro-4-(2-{4-[2-hydroxy-3-(2-methoxy-phenoxy)-propylamino]-piperidin-1-yl}-2-oxo-ethoxy)-phenyl]-4,5-dihydro-2H-pyridazin-3-one]"
< 1000,,"N#Cc1ccccc1OC[C@@H](O)CNC1CCN(C(=O)COc2ccc(C3=NNC(=O)CC3)cc2Cl)CC1 [Compound 8e, 2-[3-(1-{2-[2-chloro-4-(6-oxo-1,4,5,6-tetrahydro-pyridazin-3-yl)-phenoxy]-acetyl}-piperidin-4-ylamino)-2-hydroxy-propoxy]-benzonitrile]"
< 1000,,"O=C1CCC(c2ccc(OCC(=O)N3CCC(NC[C@H](O)COc4cccc(Br)c4)CC3)c(Cl)c2)=NN1 [Compound 8l, 6-[4-(2-{4-[3-(3-bromo-phenoxy)-2-hydroxy-propylamino]-piperidin-1-yl}-2-oxo-ethoxy)-3-chloro-phenyl]-4,5-dihydro-2H-pyridazin-3-one]"
< 1000,,"O=C1CCC(c2ccc(OCC(=O)N3CCC(NC[C@H](O)COc4ccccc4)CC3)c(Cl)c2)=NN1 [Compound 8a, 6-(3-chloro-4-{2-[4-(2-hydroxy-3-phenoxy-propylamino)-piperidin-1-yl]-2-oxo-ethoxy}-phenyl)-4,5-dihydro-2H-pyridazin-3-one]"
< 1000,,"CC(C)(CNC(=O)COc1ccc(C2=NNC(=O)CC2)cc1Cl)NCC(O)COc1c(Br)ccc2[nH]c3ccccc3c12 (centres unmarked) [Compound 72a, N-{2-[3-(3-Bromo-9H-carbazol-4-yloxy)-2-hydroxy-propylamino]-2-methyl-propyl}-2-[2-chloro-4-(6-oxo-1,4,5,6-tetrahydro-pyridazin-3-yl)-phenoxy]-acetamide]"
< 1000,,"Cc1ccccc1OC[C@@H](O)CNC1CCN(C(=O)COc2ccc(C3=NNC(=O)CC3)cc2Cl)CC1 [Compound 8f, 6-(3-chloro-4-{2-[4-(2-hydroxy-3-o-tolyloxy-propylamino)-piperidin-1-yl]-2-oxo-ethoxy}-phenyl)-4,5-dihydro-2H-pyridazin-3-one]"
< 1000,< 100,"C=CCc1ccccc1OC[C@@H](O)CNC1CCN(C(=O)COc2ccc(C3=NNC(=O)CC3)cc2Cl)CC1 [Compound 8j, 6-[4-(2-{4-[3-(2-allyl-phenoxy)-2-hydroxy-propylamino]-piperidin-1-yl}-2-oxo-ethoxy)-3-chloro-phenyl]-4,5-dihydro-2H-pyridazin-3-one]"
< 1000,,"N#Cc1ccc(OC[C@@H](O)CNC2CCN(C(=O)COc3ccc(C4=NNC(=O)CC4)cc3Cl)CC2)cc1 [Compound 8o, 4-[3-(1-{2-[2-chloro-4-(6-oxo-1,4,5,6-tetrahydro-pyridazin-3-yl)-phenoxy]-acetyl}-piperidin-4-ylamino)-2-hydroxy-propoxy]-benzonitrile]"
< 1000,,"CC(=O)c1ccccc1OC[C@@H](O)CNC1CCN(C(=O)COc2ccc(C3=NNC(=O)CC3)cc2Cl)CC1 [Compound 8k, 6-[4-(2-{4-[3-(2-acetyl-phenoxy)-2-hydroxy-propylamino]-piperidin-1-yl}-2-oxo-ethoxy)-3-chloro-phenyl]-4,5-dihydro-2H-pyridazin-3-one]"
< 1000,,"N#Cc1cccc(OC[C@@H](O)CNC2CCN(C(=O)COc3ccc(C4=NNC(=O)CC4)cc3Cl)CC2)c1 [Compound 8m, 3-[3-(1-{2-[2-chloro-4-(6-oxo-1,4,5,6-tetrahydro-pyridazin-3-yl)-phenoxy]-acetyl}-piperidin-4-ylamino)-2-hydroxy-propoxy]-benzonitrile]"
< 1000,< 100,"O=C1CCC(c2ccc(OCC(=O)N3CCC(NC[C@H](O)COc4ccccc4OC(F)(F)F)CC3)c(Cl)c2)=NN1 [Compound 8i, 6-[3-chloro-4-(2-{4-[2-hydroxy-3-(2-trifluoromethoxy-phenoxy)-propylamino]-piperidin-1-yl}-2-oxo-ethoxy)-phenyl]-4,5-dihydro-2H-pyridazin-3-one]"

# Further lines, the molecule ahead of its results:
SMILES,IC50 (read-out: PDE3 inhibition IC50) [nM],IC50 [1] [nM]
"COCCc1ccc(OCC(O)CNC2CCN(C(=O)COc3ccc(C4=NNC(=O)CC4)cc3Cl)CC2)cc1 (racemic) [Compound 13, 6-{3-Chloro-4-[2-(4-{2-hydroxy-3-[4-(2-methoxy-ethyl)-phenoxy]-propylamino}-piperidin-1-yl)-2-oxo-ethoxy]-phenyl}-4,5-dihydro-2H-pyridazin-3-one]",< 1000,
"O=C1CCC(c2ccc(OCC(=O)N3CC(NCC(O)COc4cccc5[nH]c6ccccc6c45)C3)c(Cl)c2)=NN1 (centres unmarked) [Compound 75, 6-[4-(2-{3-[3-(9H-Carbazol-4-yloxy)-2-hydroxy-propylamino]-azetidin-1-yl}-2-oxo-ethoxy)-3-chloro-phenyl]-4,5-dihydro-2H-pyridazin-3-one]",< 1000,
"O=C1CCC(c2ccc(OCCCNC[C@H](O)COc3cccc4[nH]c5ccccc5c34)c(Cl)c2)=NN1 [Compound 29, 6-(4-{3-[(S)-3-(9H-Carbazol-4-yloxy)-2-hydroxy-propylamino]-propoxy}-3-chloro-phenyl)-4,5-dihydro-2H-pyridazin-3-one]",< 1000,< 100
COCCc1ccc(OC[C@@H](O)CNCCCOc2ccc(C3=NNC(=O)CC3)cc2Cl)cc1 [Compound 36],< 1000,< 100
O=C1CCC(c2ccc(OCCNCC(O)COc3cccc4[nH]ccc34)c(Cl)c2)=NN1 (centres unmarked) [Compound 52],< 1000,< 100
"O=C1CCC(c2ccc(OCC(=O)N3CCC(NC[C@H](O)COc4ccc5c(c4)[nH]c4ccccc45)CC3)c(Cl)c2)=NN1 [Compound 33, 6-[4-(2-{4-[(S)-3-(9H-Carbazol-2-yloxy)-2-hydroxy-propylamino]-piperidin-1-yl}-2-oxo-ethoxy)-3-chloro-phenyl]-4,5-dihydro-2H-pyridazin-3-one]",< 1000,
"COCCc1ccc(OC[C@@H](O)CNC2CN(C(=O)COc3ccc(C4=NNC(=O)CC4)cc3Cl)C2)cc1 [Compound 48, 6-{3-Chloro-4-[2-(3-{(S)-2-hydroxy-3-[4-(2-methoxy-ethyl)-phenoxy]-propylamino}-azetidin-1-yl)-2-oxo-ethoxy]-phenyl}-4,5-dihydro-2H-pyridazin-3-one]",< 1000,
"COCCc1ccc(OC[C@@H](O)CNC(C)(C)CNC(=O)COc2ccc(C3=NNC(=O)CC3)cc2Cl)cc1 [Compound 40, 2-[2-Chloro-4-(6-oxo-1,4,5,6-tetrahydro-pyridazin-3-yl)-phenoxy]-N-(2-{(S)-2-hydroxy-3-[4-(2-methoxy-ethyl)-phenoxy]-propylamino}-2-methyl-propyl)-acetamide]",< 1000,
O=C1CCC(c2ccc(OCCCCNCC(O)COc3cccc4[nH]c5ccccc5c34)c(Cl)c2)=NN1 (centres unmarked) [Compound 56],< 1000,< 100
"O=C1CCC(c2ccc(OCCNC[C@H](O)COc3cccc4[nH]c5ccccc5c34)c(Cl)c2)=NN1 [Compound 22, 6-(4-{2-[(S)-3-(9H-carbazol-4-yloxy)-2-hydroxy-propylamino]-ethoxy}-3-chloro-phenyl)-4,5-dihydro-2H-pyridazin-3-one]",< 1000,< 100
"O=C1CCC(c2ccc(OCC(=O)N3CCC(NCC(O)COc4cccc5[nH]c6ccccc6c45)CC3)c(Cl)c2)=NN1 (centres unmarked) [Compound 63, 6-[4-(2-{4-[3-(9H-Carbazol-4-yloxy)-2-hydroxy-propylamino]-piperidin-1-yl}-2-oxo-ethoxy)-3-chloro-phenyl]-4,5-dihydro-2H-pyridazin-3-one]",< 1000,
O=C(COc1ccc(C2=NNC(=O)CC2)cc1Cl)NCCNCC(O)COc1cccc2[nH]c3ccccc3c12 (centres unmarked) [Compound 70],< 1000,< 100
O=C1CCC(c2ccc(OCCCCCNCC(O)COc3cccc4[nH]c5ccccc5c34)c(Cl)c2)=NN1 (centres unmarked) [Compound 57],< 1000,
"COCCc1ccc(OC[C@@H](O)CNC2CCN(C(=O)COc3ccc(C4=NNC(=O)CC4)cc3Cl)C2)cc1 (stereo partly drawn) [Compound 42, 6-{3-Chloro-4-[2-(3-{(S)-2-hydroxy-3-[4-(2-methoxy-ethyl)-phenoxy]-propylamino}-pyrrolidin-1-yl)-2-oxo-ethoxy]-phenyl}-4,5-dihydro-2H-pyridazin-3-one]",< 1000,
COCCc1ccc(OC[C@@H](O)CNCCCCCOc2ccc(C3=NNC(=O)CC3)cc2Cl)cc1 [Compound 46],< 1000,
"O=C1CCC(c2ccc(OCCCNC[C@H](O)COc3ccc4c(c3)[nH]c3ccccc34)c(Cl)c2)=NN1 [Compound 35, 6-(4-{3-[(S)-3-(9H-Carbazol-2-yloxy)-2-hydroxy-propylamino]-propoxy}-3-chloro-phenyl)-4,5-dihydro-2H-pyridazin-3-one]",< 1000,
"O=C1CCC(c2ccc(OCCCNCC(O)COc3cccc4[nH]c5ccccc5c34)c(Cl)c2)=NN1 (centres unmarked) [Compound 64, 6-(4-{3-[3-(9H-Carbazol-4-yloxy)-2-hydroxy-propylamino]-propoxy}-3-chloro-phenyl)-4,5-dihydro-2H-pyridazin-3-one]",< 1000,< 100
